Results from patent publication US7744921B2, “Liposome loading with metal ions” (Celator Pharmaceuticals, Inc., priority 2001, dated 2010).
Values belong to the compound of their own block, whether it stands above or below them.

Experiments:
[1] = Effect of buffer composition on precipitation of metal ion (20 mM histidine, triethanolamine to pH 7.4, visual inspection); type: physicochemical; design: key: ppt: represents that the formation of a precipitate occurred after the addition of triethanolamine within a time course of 10 minutes; no ppt: represents that the formation of a precipitate did not occur after addition of triethanolamine to achieve a pH of 7.4 and within a time course of 10 minutes; conditions: pH 7.4, 10 minutes
[2] = Precipitation of MnSO4 in pH 7.4 HEPES buffer (metal compatible solution); type: physicochemical; conditions: 300 mM solution of MnSO4 in pH 7.4 HEPES buffer
Method: Preferably, the metal solution should be clear and soluble, free of aggregation, precipitation or flocculation for at least about 4 hours. By way of example, a 300 mM solution of MnSO4 in pH 7.4 HEPES buffer as described in Cheung, et al. [supra] is not a metal compatible solution as it produces an obvious brown precipitate of Mn(OH)2 comprising approximately 6-7 molar % of the manganese added to the solution.
An alternative preferred method of determining whether a metal solution is metal compatible is by centrifugation (e.g. 100 ml sample at 1000 rpm for 10 minutes) to collect any precipitate, measuring the amount of precipitate collected and determining the proportion of the metal added to the original solution present in the precipitate. The amount of metal in the precipitate should not exceed about 1 molar % of the amount of metal added to the original solution.

[3] = Drug-to-lipid ratio of passively encapsulated first drug before/after loading of second drug; conditions: DSPC/DSPG (80:20)
Method: Prior to measurement of absorbance, liposomes were solubilized in a solution containing Triton X-100.
Samples were extruded and external buffers exchanged into SHE, pH 7.4, using a hand-held tangential flow dialysis column. […] Atomic absorption spectrometry (AA) was used to determine carboplatin concentrations and absorbance at 370 nm was measured to determine irinotecan concentrations.

[4] = Active (metal-based, citrate or ionophore) loading of drug into liposomes; spin column, drug-to-lipid ratio; type: physicochemical; conditions: for loading efficiency: 300 mM MnSO4, 37° C.
Method: Lipids were dissolved in chloroform solution and subsequently dried under a stream of nitrogen gas and placed in a vacuum pump to remove solvent. Unless otherwise specified, trace levels of radioactive lipid 3H-CHE were added to quantify lipid during the formulation process. The resulting lipid film was placed under high vacuum for a minimum of 2 hours. The lipid film was hydrated in the solution indicated to form multilamellar vesicles (MLVs). The resulting preparation was extruded 10 times through stacked polycarbonate filters with an extrusion apparatus (Lipex Biomembranes, Vancouver, BC) to achieve a mean liposome size between 80 and 150 nm. All constituent lipids of liposomes are reported in mole %.
At various time points after initiation of drug loading, aliquots were removed and passed through a Sephadex G-50 spin column to separate free from encapsulated drug. To a specified volume of eluant, Triton X-100 or N-ocyl beta-D-glucopyranoside (OGP) was added to solubilize the liposomes. Following addition of detergent, the mixture was heated to the cloud point of the detergent and allowed to cool to room temperature before measurement of the absorbance or fluorescence. Drug concentrations were calculated by comparison to a standard curve.
In order to determine whether copper loading of irinotecan in the absence of a pH gradient could occur using a cholesterol-free formulation, DSPC/DSPG (80:20 mole ratio) liposomes containing copper(II) gluconate were prepared with an external and internal pH of 7.4. […] The lipid films were hydrated in 100 mM Cu(II) gluconate adjusted to pH 7.4 with triethanolamine (TEA) and extruded at 70° C. […] Irinotecan was added to the liposome preparation at a 0.1:1 drug-to-lipid mole ratio and incubated at 50° C. The extent of drug loading was determined as described in the methods by measuring absorbance at 370 nm and lipid levels were determined by liquid scintillation counting.
Loading of daunorubicin into DSPC/DSPG (90:10 mole ratio) liposomes containing encapsulated CuSO4 buffered to pH 7.4 was also investigated. […] A solution of 150 mM CuSO4, 20 mM histidine (adjusted to pH 7.4 using TEA), was employed as the hydration medium and MLVs were extruded at 70° C. […] Daunorubicin was loaded at a 0.1:1 drug/lipid weight ratio. A drug-to-lipid ratio at various time points during loading was determined by measuring absorbance at 480 nm after solubilization in detergent to quantify daunorubicin as described; lipid levels were determined by liquid scintillation counting.
The liposomes were prepared as described in the methods by hydrating lipid films in a solution of 100 mM copper(II) gluconate adjusted to pH 7.4 with TEA. Liposomes were extruded at 65° C. and the external buffer of the liposomes was exchanged to SHE, pH 7.4 by tangential flow dialysis. Liposomes were incubated with irinotecan at a 0.1:1 drug-to-lipid weight ratio at 50° C. and the extent of drug loading was determined as described by measuring absorbance at 370 nm after solubilization by detergent.
In addition to copper loading, loading of drug using MnSO4 containing liposomes in the absence of a pH gradient was also investigated. […] Lipids films were prepared as described and hydrated in 300 mM MnSO4 buffered to pH 7.4 with 20 mM imidazole (initial pH was adjusted to 7.4 with concentrated HCl) and extrusion was carried out at 70° C. The samples were run down a Sephadex G-50 column to exchange the exterior buffer with SHE, pH 7.4.

[5] = as above; type: physicochemical; conditions: for sequential loading of two drugs into a single liposome (in words): 300 mM CuSO4, 60° C., irinotecan 0.2:1 then doxorubicin 0.15:1 mole ratio
[6] = 150 mM metal in 20 mM histidine
[7] = 300 mM metal in 20 mM histidine
[8] = DPPC/DSPE-PEG2000 (95:5), pH gradient citrate loading (300 mM citrate, pH 4.0), 37° C.

- time to essentially complete loading ([4]; DMPC/Chol (55:45), 300 mM citrate pH 3.5, external HBS, 60° C., weight ratio 0.2:1): ≤ 5 min
- loading efficiency ([4]; DPPC/DSPE-PEG2000 (95:5), initial drug/lipid weight ratio 0.1:1): > 95%
- loading efficiency ([4]; DPPC/DSPE-PEG2000 (95:5), initial drug/lipid weight ratio 0.2:1): > 90%
- added drug encapsulated ([4]; DSPC/Chol (55:45), 300 mM CoCl2, SHE pH 7.5, weight ratio 0.1:1, 60° C., within 10 minutes): > 90%
- leakage during vincristine encapsulation (in words) ([4]; DSPC/Chol (55:45), 300 mM MnSO4, doxorubicin preloaded at 0.2:1 wt/wt, vincristine loading at 50° C.): no significant leakage
- accumulation relative to MnSO4 and citrate loading (in words) ([5]; DMPC/Chol (55:45), 300 mM MnCl2, external SHE pH 7.5, 60° C., weight ratio 0.2:1): less complete
- time to essentially complete loading ([5]; DMPC/Chol (55:45), 300 mM MnSO4, external SHE pH 7.5, 60° C., weight ratio 0.2:1): ≤ 5 min
- loading efficiency ([5]; DPPC/DSPE-PEG2000 (95:5), 300 mM MnSO4, 37° C., initial drug/lipid weight ratio 0.3:1): > 80%
- maximum drug-to-lipid weight ratio achieved [5, 8]: < 0.075
- sequential loading of two drugs into a single liposome (in words) ([5]; DSPC/Chol (55:45)): efficiently loaded
Compound: COc1cccc2c1C(=O)c1c(O)c3c(c(O)c1C2=O)C[C@@](O)(C(=O)CO)C[C@@H]3O[C@H]1C[C@H](N)[C@H](O)[C@H](C)O1 [doxorubicin]
- encapsulation efficiency as doxorubicin/lipid weight ratio increased from 0.1 to 0.3 (in words) [4, 8]: substantial reduction in encapsulation efficiency

- drug accumulation ([5]; DSPC/DSPE-PEG2000 (95:5), 300 mM CuSO4, SHE pH 7.4, weight ratio 0.2:1, 60° C., within 5 minutes): > 95%
Compound: COc1cccc2c1C(=O)c1c(O)c3c(c(O)c1C2=O)C[C@@](O)(C(=O)CO)C[C@@H]3O[C@H]1C[C@H](N)[C@@H](O)[C@H](C)O1 [epirubicin]
- loading (in words) ([4]; DSPC/DSPE-PEG2000 (95:5), 300 mM MnSO4, 20 mM imidazole pH 7.4 internal, SHE pH 7.4 external, no pH gradient, 60° C., weight ratio 0.2:1): efficient encapsulation of drug occurred at each time point measured

- loading complete ([5]; DSPC/Chol (55:45), 300 mM CuSO4, SHE pH 7.4, weight ratio 0.1:1, 37° C., within 30 minutes): > 95%
Compound: CC[C@@]1(O)C(=O)OCc2c1cc1n(c2=O)Cc2cc3c(CN(C)C)c(O)ccc3nc2-1 [topotecan]

- precipitation after addition of triethanolamine: Chloride [1, 6]: no ppt
- precipitation after addition of triethanolamine: Sulfate [1, 6]: no ppt
- precipitation after addition of triethanolamine: Chloride [1, 7]: no ppt
- precipitation after addition of triethanolamine: Nitrate [1, 7]: no ppt
- precipitation after addition of triethanolamine: Sulfate [1, 7]: no ppt
Compound: Copper

More lines, now with the values behind:

Compound: [Cd] [Cadmium]
- precipitation after addition of triethanolamine: Chloride [1, 6]: ppt
- precipitation after addition of triethanolamine: Sulfate [1, 6]: no ppt
- precipitation after addition of triethanolamine: Chloride [1, 7]: ppt
- precipitation after addition of triethanolamine: Sulfate [1, 7]: no ppt

Compound: [Mn+2] [Manganese]
- precipitation after addition of triethanolamine: Chloride [1, 6]: ppt
- precipitation after addition of triethanolamine: Sulfate [1, 6]: no ppt
- precipitation after addition of triethanolamine: Chloride [1, 7]: ppt
- precipitation after addition of triethanolamine: Sulfate [1, 7]: no ppt

Compound: O=S(=O)([O-])[O-].[Mn+2] [MnSO4 in pH 7.4 HEPES buffer, MnSO4]
- proportion of added manganese in Mn(OH)2 precipitate [2]: 6-7 molar %

Compound: N.N.O=C([O-])C1(C(=O)[O-])CCC1.[Pt+2] [carboplatin]
- carboplatin drug-to-lipid weight ratio after loading of irinotecan ([3]; 150 mM CuSO4 pH 7.4, irinotecan loaded at 60° C.): 0.025
- initial carboplatin drug-to-lipid weight ratio ([3]; 150 mM CuSO4 pH 7.4, passively encapsulated): 0.030

Compound: CCc1c2c(nc3ccc(OC(=O)N4CCC(N5CCCCC5)CC4)cc13)-c1cc3c(c(=O)n1C2)COC(=O)[C@]3(O)CC [irinotecan]
- time to almost complete loading ([4]; DPPC/Chol (55:45), 100 mM Cu(II) gluconate pH 7.4 internal, SHE pH 7.4 external, no pH gradient, 50° C., weight ratio 0.1:1): about 60 minutes
- loading complete ([4]; DSPC/DSPE-PEG2000 (95:5), 300 mM MnSO4, SHE pH 7.4, 60° C., weight ratio 0.1:1, 30-minute time point): 10%
- time to essentially complete loading ([4]; DSPC/DSPG (80:20) liposomes, 100 mM Cu(II) gluconate pH 7.4 (TEA) internal, SHE pH 7.4 external, no pH gradient, 50° C., drug-to-lipid mole ratio 0.1:1): ≤ 5 min
- loading after chelation column versus after exchange into EDTA-containing solution (in words) ([4]; DSPC/DSPG (80:20), 150 mM copper gluconate pH 7.4, 37, 50 and 60° C., weight ratio 0.1:1): comparable
- sequential loading of two drugs into a single liposome (in words) ([5]; DSPC/Chol (55:45)): efficiently loaded
- encapsulation ([5]; DSPC/Chol (55:45), 300 mM CuSO4, SHE pH 7.5, drug-to-lipid mole ratio 0.2:1, 60° C., loaded first): approximately 100%
- loading ([5]; DSPC/DSPE-PEG2000 (95:5), 300 mM CuSO4, SHE pH 7.4, 60° C., weight ratio 0.1:1, within 5 minutes): greater than 95%
- loading (in words) ([5]; DSPC/DSPG (80:20), 150 mM CuSO4 pH 7.4, exchanged into solution not containing a chelating agent, 37, 50 and 60° C., weight ratio 0.1:1): reduced rate
- loading (in words) ([5]; DSPC/DSPG (80:20), 150 mM CuSO4 pH 7.4, passed through Chelex-100 column, 37, 50 and 60° C., weight ratio 0.1:1): enhanced
- loading (in words) ([5]; FUDR-containing DSPC/Chol/DSPG (70:10:20), 100 mM Cu(II) gluconate, 220 mM TEA pH 7.4, external HBS or sucrose/HEPES pH 7.4, 50° C., mole ratio 0.1:1): efficiently loads
- loading (in words) ([5]; FUDR-containing DSPC/DSPG (85:15), 100 mM Cu(II) gluconate, 220 mM TEA pH 7.4, external 300 mM sucrose, 20 mM HEPES pH 7.4, 50° C., mole ratio 0.1:1): efficient loading of the drug occurred throughout the time course of the experiment
- loading (in words) ([5]; carboplatin-containing DSPC/DSPG (80:20), 150 mM CuSO4 pH 7.4, SHE pH 7.4 external, 60° C., weight ratio 0.1:1): loads to a high degree

Compound: CC[C@]1(O)C[C@H]2CN(CCc3c([nH]c4ccccc34)[C@@](C(=O)OC)(c3cc4c(cc3OC)N(C=O)[C@H]3[C@@](O)(C(=O)OC)[C@H](OC(C)=O)[C@]5(CC)C=CCN6CC[C@]43[C@@H]65)C2)C1 [vincristine]
- incubation time to near maximum encapsulation ([4]; DSPC/Chol (55:45), 300 mM MnSO4, preloaded with doxorubicin, A23187 ionophore-mediated loading, 50° C., weight ratio 0.05:1): 40 min

Compound: Cobalt
- precipitation after addition of triethanolamine: Chloride [1, 6]: no ppt
- precipitation after addition of triethanolamine: Sulfate [1, 6]: no ppt
- precipitation after addition of triethanolamine: Chloride [1, 7]: no ppt
- precipitation after addition of triethanolamine: Sulfate [1, 7]: no ppt

Compound: Zinc
- precipitation after addition of triethanolamine: Chloride [1, 6]: ppt
- precipitation after addition of triethanolamine: Sulfate [1, 6]: ppt
- precipitation after addition of triethanolamine: Chloride [1, 7]: ppt
- precipitation after addition of triethanolamine: Sulfate [1, 7]: ppt
